Test results published in patent US20180339016A1 (priority 2015, published 2018).
Where two headings read alike, the source gives them in different places.

Columns and labels:
E. coli ATCC 25922 [1] = tested on: E. coli ATCC 25922
[2] = tested on: Escherichia coli (ATCC 25922); details: peptide alone; peptide concentration required to inhibit growth by 20% (so in the source)
Method: (§1) The N-terminus of the peptides were acetylated and the C-terminus was amidated. The kinked structure can rapidly reduce the alpha-helical content, thereby greatly reducing the toxicity of the peptide against host cells. In addition, because of the potential to show specificity for the Gram-negative bacterial membrane, Pro-mutants were prepared by site-directed mutagenesis. Using the prepared peptides, their MIC for the Gram-negative bacterium E. coli and the Gram-positive bacterium S. aureus and their hemolytic activity for host cells were examined (Table 1).
(§2) To measure the synergy between the membrane-activating peptides and the repositioning drug, a 10× compound was prepared, and then serially diluted ⅔-fold with distilled water. An MH broth (900 μl) was added to and mixed with the 10× compound (100 μl), and then 200 μL of the mixture was taken and added to a 96-well plate. E. coli cultured for one day was adjusted to 0.5 MCF using MCFarland, and diluted 10-fold, and then 10 μl of the dilution was added to each well of the plate (5×10^5 CFU/mL). After addition of the bacterial cells, plate was incubated at 37° C. for 18 hours, and then the OD value at UV-Vis (600 nm) was measured. Cell viability (%)=(OD600 of sample−OD600 of negative control)/(OD600 of positive control−OD600 of negative control)×100.

E. coli ATCC 25922 [3] = experiment: Antibiotic interaction assay (Wimley), 2/3 broth microdilution: MIC alone, MIC of combination, FICI; format: cell-based
Method: Synergy was evaluated by an antibiotic interaction assay (Wimley, 2015) Using the method of Wimley (BBA, 2015, v. 1848(1), pp. 8-15), synergy between the membrane-activating peptide and an antibiotic was measured by an FICI value (FIG. 17). […] Thus, to accurately examine synergy, a ⅔ dilution method which observes MIC at denser concentration intervals is advantageous over a ½ dilution method in statistical terms. […] In the same manner, the MIC of an antibiotic or repositioning drug (second line) is measured. In the third line, the two compounds are mixed after putting half amount each, and the MIC thereof is measured.
A broth microdilution technique (⅔ dilution) was used together with an MH broth. E. coli treated with an antibiotic and the peptide was incubated in a 37° C. incubator for 18 hours.
as §2

[4] = tested on: Staphylococcus aureus (ATCC 29213); experiment: MIC of peptide against S. aureus; format: cell-based; details: peptide alone
Method: as §1

[5] = Table 13, Lys-Ala scanning library

Row | Substance | FICI Against E. coli, Colistin & 1/2 MIC peptide (E. coli ATCC 25922 [1]; [5]) | FICI Against E. coli, Colistin & 1/2 MIC peptide (E. coli ATCC 25922 [1]; Table 15, Leu-Ala scanning) | FICI Against E. coli, Colistin & 1/4 MIC peptide (E. coli ATCC 25922 [1]; Table 15, Leu-Ala scanning) | MIC [μM] Against E. coli [2] [µM] | MIC [μM] Against S. aureus [4] [µM] | other results
1 | ALLKLLKKPLKLLK [KL-L9P/K1A] | 0.71 |  |  |  |  | 
2 | Ac-KLLKALKKPLKLLK-NH2 [KL-L5AL9P] |  | 0.86 | 0.49 | 18 |  | increase of FICI value with colistin when peptide changed from 1/4 MIC to 1/2 MIC (E. coli ATCC 25922 [1]): 0.37
3 | KALKLLKKPLKLLK [KL-L2AL9P] |  | 0.74 | 0.61 | 40 |  | 
4 | KLAKLLKKPLKLLK [KL-L3AL9P] |  | 0.70 | 0.55 | 27 |  | 
5 | KLLALLKKPLKLLK [KL-L9P/K4A] | 0.79 |  |  |  |  | 
6 | KLLKLLAKPLKLLK [KL-L9P/K7A] | 0.86 |  |  |  |  | 
7 | KLLKLLKAPLKLLK [KL-L9P/K8A] | 0.97 |  |  |  |  | 
8 | KLLKLLKKDLKLLK [KL L9D] |  |  |  | 20 |  | MIC of combination (μM): antibiotic (colistin) (E. coli ATCC 25922 [3]; colistin concentration in combination with labelled peptide): 0.09 µM; FICI of peptide with colistin (E. coli ATCC 25922 [3]; labelled peptide + colistin): 0.46; FICIPeptide (E. coli ATCC 25922 [3]; labelled peptide + colistin): 0.28; FICIcolistin / FICIantibiotic (E. coli ATCC 25922 [3]; labelled peptide + colistin): 0.18; FICI of peptide with simvastatin (E. coli ATCC 25922 [3]; labelled peptide + simvastatin): 0.61; FICIPeptide (E. coli ATCC 25922 [3]; labelled peptide + simvastatin): 0.5; FICIsimvastatin (E. coli ATCC 25922 [3]; labelled peptide + simvastatin): 0.11; MIC of peptide (E. coli ATCC 25922 [3]; peptide alone): 18 µM; MIC of combination (μM): peptide (E. coli ATCC 25922 [3]; peptide concentration in combination with colistin): 5 µM; MIC of combination (μM): peptide (E. coli ATCC 25922 [3]; peptide concentration in combination with simvastatin): 9 µM; MIC of combination (μM): simvastatin (E. coli ATCC 25922 [3]; simvastatin concentration in combination with labelled peptide): 83.33 µM
9 | KLLKLLKKLLKLLK |  |  |  | 20 | 20 | 
10 | KLLKLLKKLLKLPK [KL-L13P] |  |  |  | 5 | 10 | 
11 | KLLKLLKKLLKPLK [KL-L12P] |  |  |  | 2.5 | 20 | 
12 | KLLKLLKKLPKLLK [KL-L10P] |  |  |  | 2.5 | 20 | 
13 | KLLKLLKKPAKLLK [KL-L9PL10A] |  | 0.80 | 0.49 | 40 |  | increase of FICI value with colistin when peptide changed from 1/4 MIC to 1/2 MIC (E. coli ATCC 25922 [1]): 0.31
14 | KLLKLLKKPLALLK [KL-L9P/K11A] | 1.25 |  |  |  |  | 
15 | KLLKLLKKPLKALK [KL-L9PL12A] |  | 0.74 | 0.61 | 40 |  | 
16 | KLLKLLKKPLKLAK [KL-L9PL13A] |  | 0.80 | 0.51 | 40 |  | increase of FICI value with colistin when peptide changed from 1/4 MIC to 1/2 MIC (E. coli ATCC 25922 [1]): 0.29
17 | KLLKLLKKPLKLLA [KL-L9P/K14A] | 0.66 |  |  |  |  | 
18 | KLLKLLKPLLKLLK [KL-K8P] |  |  |  | 2.5 | 5.0 | 
19 | KLLKLLPKLLKLLK [KL-K7P] |  |  |  | 2.5 | 5.0 | 
20 | KLLKLPKKLLKLLK [KL-L6P] |  |  |  | 10 | >40 | Fractional Inhibitory Concentration Index (FICI), Colistin & 1 μM peptide (E. coli ATCC 25922 [1]; Table 4): 0.83, Synergism; MIC (μM) against E. coli ATCC 25922, Peptide alone (E. coli ATCC 25922 [1]; Table 4, bacterial growth <10% of control): 3 µM
